{"source": "paper PMC10904332", "about": "(Science (New York, N.Y.), 2022)", "origin": "cited, not measured here", "conditions": "known resistance mechanisms"}
{"substance": "bacitracin", "values": [{"measurement": "MIC increase from resistance mechanisms", "result": "> 254", "unit": "fold"}]}
